Counter-ions that a name gives are not always drawn.
test system: Human mast cells (CHMC); test: LD Tryptase release assay in CHMC (mast cell activation induced by FcγR cross-linking); assay type: cell-based; conditions: Homo sapiens, Mast cell, anti-IgG stimulation, activity of tryptase released upon degranulation
Experimental: Compounds were assayed for inhibition of mast cell activation induced by FcγR cross-linking by measuring the activity of tryptase released upon degranulation as follows:
Human mast cells were cultured and differentiated from […] progenitor cell as described in U.S. Patent Publication No. 2005-234049, incorporated herein by reference. For example, 65 μL of various concentrations of the compound to be assayed were prepared in MT (137 mM NaCl, 2.7 mM KCl, 1.8 mM CaCl2, 1.0 mM MgCl2, 5.6 mM Glucose, 20 mM Hepes (pH 7.4), 0.1% Bovine Serum Albumin, (Sigma A4503)) containing 2% MeOH and 1% DMSO, or control buffer were added to duplicate 96-well V-bottom plates. Pelleted and re-suspended (in warm MT) CHMC cells (65 μL) were added to each 96-well plate, mixed and incubated for 1 hour at 37° C. 25 μl of 6× anti-IgG Rabbit anti-human IgG, Affinity purified (Bethyl Laboratories Cat No. A80-105A3) final concentration 1 μg/mL, was added to the test wells. MT (25 μL) was added to control wells. After a 60-minute incubation at 37° C., cells and cell debris were pelleted by centrifugation at 1000 rpm for 10 min and tryptase and leukotriene C4 levels were measured.
To measure tryptase levels, 25 μL of supernatant from each well was transferred to a fresh 96-well black bottom plate, to which 100 μL of fresh tryptase substrate solution [(Z-Ala-Lys-Arg-AMC2TFA; Enzyme Systems Products, #AMC-246)] 1:2000 in tryptase assay buffer [0.1 M Hepes (pH 7.5), 10% w/v Glycerol, 10 μM Heparin (Sigma H-4898) 0.01% NaN3] was added. After 30 minute incubation at room temperature, the optical density of the plates is measured at 355 nm/460 nm on a spectrophotometric plate reader. Table 1 provides the IC50 values.
Compounds of the disclosure were assayed for their ability to inhibit mast cell activation induced by FcγR cross-linking by measuring the activity of tryptase released upon degranulation. The IC50 values for the LD Tryptase assay are presented in Table 2, in which “0” is >100 μM; “A” is 1-100 μM; “B” is 0.5-1 μM; “C” is 0.1-0.5 μM; and “D” is less than 0.1 μM: […]

| IC50 [nM] | SMILES |
| --- | --- |
| 1000 to 100000 | CC1(C)Oc2ccc(Nc3nc(Nc4ccc(N5CC(O)C5)nc4)ncc3F)nc2NC1=O [Compound 146, N4-(2,2-dimethyl-3,4-dihydro-3-oxo-2H-pyrido[3,2-b][1,4]oxazin-6-yl)-5-fluoro-N2-[6-(3-hydroxyazetidin-1-yl)pyridin-3-yl]-2,4-pyrimidinediamine] |
| 1000 to 100000 | CC1(C)Oc2ccc(Nc3nc(Nc4ccc(N5CCC(F)(F)CC5)cc4)ncc3F)nc2NC1=O [Compound 29, N4-(2,2-dimethyl-3,4-dihydro-3-oxo-2H-pyrido[3,2-b][1,4]oxazin-6-yl)-5-fluoro-N2-[4-(4,4-difluoro-1-piperidinyl)phenyl]-2,4-pyrimidinediamine] |
| < 100 | CC1(C)Oc2ccc(Nc3nc(Nc4ccc5ccncc5c4)ncc3F)nc2NC1=O [Compound 133, N4-(2,2-dimethyl-3,4-dihydro-3-oxo-2H-pyrido[3,2-b][1,4]oxazin-6-yl)-5-fluoro-N2-(isoquinolin-7-yl)-2,4-pyrimidinediamine] |
| 100 to 500 | CC1(C)Oc2ccc(Nc3nc(Nc4ccc(N5CCOC5=O)nc4)ncc3F)nc2NC1=O [Compound 72, N4-(2,2-dimethyl-3,4-dihydro-3-oxo-2H-pyrido[3,2-b][1,4]oxazin-6-yl)-5-fluoro-N2-[6-(2-oxooxazolidin-3-yl)pyridin-3-yl]-2,4-pyrimidinediamine] |
| < 100 | COc1cc(Nc2ncc(F)c(Nc3ccc4c(n3)NC(=O)CO4)n2)ccc1N1CCOCC1 [Compound 33, N4-(3,4-dihydro-3-oxo-2H-pyrido[3,2-b][1,4]oxazin-6-yl)-5-fluoro-N2-[3-methoxy-4-morpholinophenyl]-2,4-pyrimidinediamine] |
| 1000 to 100000 | CCOC1CCN(c2ccc(Nc3ncc(F)c(Nc4ccc5c(n4)NC(=O)C(C)(C)O5)n3)cn2)CC1 [Compound 54, N4-(2,2-dimethyl-3,4-dihydro-3-oxo-2H-pyrido[3,2-b][1,4]oxazin-6-yl)-5-fluoro-N2-[6-(4-ethoxypiperidin-1-yl)pyridin-3-yl]-2,4-pyrimidinediamine] |
| 100 to 500 | CC(C)[C@@H]1COC(=O)N1c1ccc(Nc2ncc(F)c(Nc3ccc4c(n3)NC(=O)C(C)(C)O4)n2)cn1 [Compound 73, N4-(2,2-dimethyl-3,4-dihydro-3-oxo-2H-pyrido[3,2-b][1,4]oxazin-6-yl)-5-fluoro-N2-[6-((4R)-4-isopropyl-2-oxooxazolidin-3-yl)pyridin-3-yl]-2,4-pyrimidinediamine] |
| 100 to 500 | CN(C)c1ccc(Nc2ncc(F)c(Nc3ccc4c(n3)NC(=O)C(C)(C)O4)n2)cn1 [Compound 147, N4-(2,2-dimethyl-3,4-dihydro-3-oxo-2H-pyrido[3,2-b][1,4]oxazin-6-yl)-5-fluoro-N2-[6-(dimethylamino)pyridin-3-yl]-2,4-pyrimidinediamine] |
| 100 to 500 | CC1(C)Oc2ccc(Nc3nc(Nc4ccc(N5CCC6(CC5)COC6)cc4)ncc3F)nc2NC1=O [Compound 158, N4-(2,2-dimethyl-3,4-dihydro-3-oxo-2H-pyrido[3,2-b][1,4]oxazin-6-yl)-5-fluoro-N2-[4-(2-oxa-7-azaspiro[3.5]nonan-7-yl)phenyl]-2,4-pyrimidinediamine] |
| 100 to 500 | CC1(C)Oc2ccc(Nc3nc(Nc4ccc(N5CCCOCC5)cc4)ncc3F)nc2NC1=O [Compound 43, N4-(2,2-dimethyl-3,4-dihydro-3-oxo-2H-pyrido[3,2-b][1,4]oxazin-6-yl)-5-fluoro-N2-[4-homomorpholinophenyl]-2,4-pyrimidinediamine] |
| 100 to 500 | CN(C[C@H]1CCCO1)c1ccc(Nc2ncc(F)c(Nc3ccc4c(n3)NC(=O)C(C)(C)O4)n2)cn1 [Compound 111] |
| < 100 | CC1(C)Oc2ccc(Nc3nc(Nc4ccc(N5CCO[C@@H](CO)C5)cc4)ncc3F)nc2NC1=O [Compound 128, N4-(2,2-dimethyl-3,4-dihydro-3-oxo-2H-pyrido[3,2-b][1,4]oxazin-6-yl)-5-fluoro-N2-[4-((2-hydroxymethyl)morpholino)phenyl]-2,4-pyrimidinediamine] |
| 100 to 500 | CC1(C)Oc2ccc(Nc3nc(Nc4ccc(N5CCOCC5CO)c(F)c4)ncc3F)nc2NC1=O (stereo not shown) [Compound 89, N4-(2,2-dimethyl-3,4-dihydro-3-oxo-2H-pyrido[3,2-b][1,4]oxazin-6-yl)-5-fluoro-N2-[3-fluoro-4-(3-(hydroxymethyl)morpholino)phenyl]-2,4-pyrimidinediamine] |
| 100 to 500 | CCOCC1CN(c2ccc(Nc3ncc(F)c(Nc4ccc5c(n4)NC(=O)C(C)(C)O5)n3)cc2)CCO1 (stereo in doubt) [Compound 42, N4-(2,2-dimethyl-3,4-dihydro-3-oxo-2H-pyrido[3,2-b][1,4]oxazin-6-yl)-5-fluoro-N2-[4-(((2S)-2-ethoxymethyl)morpholino)phenyl]-2,4-pyrimidinediamine] |
| 100 to 500 | C[C@H]1CN(c2ccc(Nc3ncc(F)c(Nc4ccc5c(n4)NC(=O)C(C)(C)O5)n3)cn2)CCO1 [Compound 94, N4-(2,2-dimethyl-3,4-dihydro-3-oxo-2H-pyrido[3,2-b][1,4]oxazin-6-yl)-5-fluoro-N2-[6-((2S)-2-methylmorpholino)pyridin-3-yl]-2,4-pyrimidinediamine] |
| 100 to 500 | CC1(C)Oc2ccc(Nc3nc(Nc4ccc(N5CCC(C#N)CC5)cc4)ncc3F)nc2NC1=O [Compound 154, N4-(2,2-dimethyl-3,4-dihydro-3-oxo-2H-pyrido[3,2-b][1,4]oxazin-6-yl)-5-fluoro-N2-[4-(4-cyanopiperidin-1-yl)phenyl]-2,4-pyrimidinediamine] |
| 100 to 500 | CC1(C)Oc2ccc(Nc3nc(Nc4ccc(N5CCNC(=O)C5)cc4)ncc3F)nc2NC1=O [Compound 151, N4-(2,2-dimethyl-3,4-dihydro-3-oxo-2H-pyrido[3,2-b][1,4]oxazin-6-yl)-5-fluoro-N2-[4-(3-oxopiperazin-1-yl)phenyl]-2,4-pyrimidinediamine] |
| 500 to 1000 | Cc1cc(Nc2ncc(F)c(Nc3ccc4c(n3)NC(=O)C(C)(C)O4)n2)ccc1N1CCC2(CCOC2)CC1 [Compound 159, N4-(2,2-dimethyl-3,4-dihydro-3-oxo-2H-pyrido[3,2-b][1,4]oxazin-6-yl)-5-fluoro-N2-[3-methyl-4-(2-oxa-8-azaspiro[4.5]decan-8-yl)phenyl]-2,4-pyrimidinediamine] |
| < 100 | CC1(C)Oc2ccc(Nc3nc(Nc4ccc(N5CCC(O)CC5)nc4)ncc3F)nc2NC1=O [Compound 52, N4-(2,2-dimethyl-3,4-dihydro-3-oxo-2H-pyrido[3,2-b][1,4]oxazin-6-yl)-5-fluoro-N2-[6-(4-hydroxypiperidin-1-yl)pyridin-3-yl]-2,4-pyrimidinediamine] |
| 100 to 500 | COC1CCN(c2ccc(Nc3ncc(F)c(Nc4ccc5c(n4)NC(=O)C(C)(C)O5)n3)cn2)C1 (stereo in doubt) [Compound 56, N4-(2,2-dimethyl-3,4-dihydro-3-oxo-2H-pyrido[3,2-b][1,4]oxazin-6-yl)-5-fluoro-N2-[6-((3R)-3-methoxypyrrolidin-1-yl)pyridin-3-yl]-2,4-pyrimidinediamine] |
| 500 to 1000 | CC1(C)Oc2ccc(Nc3nc(Nc4ccc(N5CCN6CCC5CC6)nc4)ncc3F)nc2NC1=O [Compound 62, N4-(2,2-dimethyl-3,4-dihydro-3-oxo-2H-pyrido[3,2-b][1,4]oxazin-6-yl)-5-fluoro-N2-[6-(1,4-diazabicyclo[3.2.2]nonan-4-yl)pyridin-3-yl]-2,4-pyrimidinediamine] |
| 100 to 500 | COCC1CCN(c2ccc(Nc3ncc(F)c(Nc4ccc5c(n4)NC(=O)C(C)(C)O5)n3)cc2)CC1 [Compound 155, N4-(2,2-dimethyl-3,4-dihydro-3-oxo-2H-pyrido[3,2-b][1,4]oxazin-6-yl)-5-fluoro-N2-[4-(4-(methoxymethyl)piperidin-1-yl)phenyl]-2,4-pyrimidinediamine] |
| > 100000 | COC1CN(c2ccc(Nc3ncc(F)c(Nc4ccc5c(n4)NC(=O)C(C)(C)O5)n3)cn2)C1 [Compound 69, N4-(2,2-dimethyl-3,4-dihydro-3-oxo-2H-pyrido[3,2-b][1,4]oxazin-6-yl)-5-fluoro-N2-[6-(3-methoxyazetidin-1-yl)pyridin-3-yl]-2,4-pyrimidinediamine] |

same assay, conditions: anti-IgG stimulation, activity of tryptase released upon degranulation

| IC50 [nM] | SMILES |
| --- | --- |
| 100 to 500 | CC1(C)Oc2ccc(Nc3nc(Nc4ccc(N5CCOCC5)nc4)ncc3F)nc2NC1=O [Compound 142, N4-(2,2-dimethyl-3,4-dihydro-3-oxo-2H-pyrido[3,2-b][1,4]oxazin-6-yl)-5-fluoro-N2-[6-morpholinopyridin-3-yl]-2,4-pyrimidinediamine ethanesulfonic acid salt] |
| < 100 | CC1(C)Oc2ccc(Nc3nc(Nc4ccc(N5CCOCC5)nc4)ncc3F)nc2NC1=O [Compound 3, N4-(2,2-dimethyl-3,4-dihydro-3-oxo-2H-pyrido[3,2-b][1,4]oxazin-6-yl)-5-fluoro-N2-[6-morpholinopyridin-3-yl]-2,4-pyrimidinediamine] |
